Read-outs that look alike come from different tables or passages of the source.
Tested on: A549 human lung cancer cells
Conditions: for more cell killing at 18 MV vs 6 MV: Example 3 conclusion; for increased cell killing at 18 MV compared to 6 MV, on average: cisplatin 4 μg/ml, carboplatin 12 μg/ml (FIG. 4); for cell survival decreased using 18 MV photons compared to 6 MV photons, average of 3 experiments: FIG. 2 and FIG. 4, 2 hours before irradiation with 2 Gy, 100 μM sodium phosphotungstate, 4 μg/ml cisplatin, 12 μg/ml carboplatin; for decreased clonogenic survival at 18 MV compared to 6 MV: Example 2 conclusion
Description: Detailed Methods: The human lung cancer cell line A549 was maintained in tissue culture using standard techniques. A 70% confluent T25 tissue culture flask of A549 in exponential growth phase was trypsinized with 2 mL of 0.05% trypsin solution and deactivated with 3 mL DMEM to produce a 5 mL single cell-suspension. One milliliter of this cell solution was added to 10 mL of DMEM and vortexed to produce a homogenous diluted single cell suspension. Seven 6-well tissue culture plates were prepared with 3 mL of DMEM per well. […] These plates were incubated at 37° C. for 24 hours to allow the cells to settle and the tissue culture wells. The media was then removed from each plate and replaced with: DMEM in 3 plates as non-metal controls (250 cells per well), 100 μM sodium phosphotungstate hydrate DMEM in 2 plates (250 cells per well), 1 mM sodium tungstate dihydrate DMEM in 2 plates (250 cells per well), and 4 μg/mL cisplatin DMEM in 2 plates (1000 cells per well). The media with or without metal compounds was left in the wells to incubate for 1-2 hours prior to irradiation. Six plates were irradiated using a linear accelerator (Varian Trilogy; Varian Corp., Palo Alto, Calif.): one plate each of the DMEM, sodium phosphotungstate hydrate, sodium tungstate dihydrate, and cisplatin were given 209 MU of 6 MV X-rays (2 Gy) and the remaining plates of DMEM, sodium phosphotungstate hydrate, sodium tungstate dihydrate, and cisplatin were irradiated with 239 MU of 18 MV X-rays (2 Gy). The remaining seventh plate was not irradiated and used to calculate plating efficiency of A549. The seven plates then had all media replaced with normal DMEM immediately following irradiation and were incubated for 10 days. When A549 colonies were seen to be equal to or greater than 50 cells by microscopy, the seven plates were stained with crystal violet and counted. The same experiment above was conducted for A549 cells in DMEM media alone with administration of sodium phosphotungstate hydrate after irradiation. Two identical plates were prepared as described above and these were irradiated at 6 or 18 MV in DMEM. The media was removed after irradiation and replaced with 100 μM sodium phosphotungstate hydrate media for one hour before again being replaced with DMEM and incubated for 10 days.
A549 lung cancer cells were used to create nine 6-well plates under standard methods. The media was then removed from each plate and replaced with: DMEM in 3 plates as non-metal controls (250 cells per well), 100 μM sodium phosphotungstate hydrate DMEM in 2 plates (250 cells per well), 12 μg/ml carboplatin DMEM in 2 plates (1000 cells per well), and 4 μg/ml cisplatin DMEM in 2 plates (1000 cells per well) and incubated for 2-4 hours prior to irradiation. Eight plates were irradiated on a linear accelerator: one plate each of the DMEM, tungsten, carboplatin, and cisplatin was given 2 Gy of 6 MV X-rays and one of each was irradiated with 2 Gy of 18 MV X-rays. The remaining plate was not irradiated and used to calculate plating efficiency of A549. The nine plates were incubated for 10 days, stained with crystal violet, and colonies were counted.
In vitro studies were conducted with the A549 cell line, a human lung adenocarcinoma cultured from the tumor of a person by Giard in 1972. Clonogenic survival studies were done without irradiation or metal compound to measure plating efficiency. Cells were then exposed to 100 μM tungsten compound for 4 hours and seeded into 6 well plates. […] 4 identical plates of cells were then created, 2 containing 100 μM tungsten metal and 2 without metal.

[1] = Example 3, 2 Gy of 6 MV X-rays, incubated 2-4 hours prior to irradiation (100 μM tungsten, 4 μg/ml cisplatin, 12 μg/ml carboplatin)
[2] = Example 3, 2 Gy of 18 MV X-rays, incubated 2-4 hours prior to irradiation (100 μM tungsten, 4 μg/ml cisplatin, 12 μg/ml carboplatin)
[3] = Example 2, 2 Gy of 6 MV X-rays, compound in media 1-2 hours prior to irradiation (100 μM sodium phosphotungstate hydrate, 1 mM sodium tungstate dihydrate, 4 μg/mL cisplatin)
[4] = Example 2, 2 Gy of 18 MV X-rays, compound in media 1-2 hours prior to irradiation (100 μM sodium phosphotungstate hydrate, 1 mM sodium tungstate dihydrate, 4 μg/mL cisplatin)

| Compound | colonies/well [1] | survival [1] | colonies/well [2] | survival [2] | more cell killing at 18 MV vs 6 MV (2 Gy) | increased cell killing at 18 MV compared to 6 MV, on average (Example 4) | cell survival decreased using 18 MV photons compared to 6 MV photons, average of 3 experiments | average colonies [3] | survival [3] | average colonies [4] | survival [4] | 18 MV result compared to 6 MV, in words (Example 2, 18 MV vs 6 MV, 2 Gy) | decreased clonogenic survival at 18 MV compared to 6 MV (2 Gy) | more cell killing compared to 6 MV (Example 2, 18 MV vs 6 MV, 2 Gy, 1 mM) | survival after drug administration without irradiation (100 μM for 4 hours, no irradiation) | cell killing, plates exposed to tungsten after irradiation (Example 2, 100 μM for one hour after irradiation, at either 6 or 18 MV) | more cell killing compared to 6 MV with or without metal and 18 MV without metal (Example 4, 100 μM, 2 Gy of 18 MV photons) |
| --- | --- | --- | --- | --- | --- | --- | --- | --- | --- | --- | --- | --- | --- | --- | --- | --- | --- |
| N.N.O=C([O-])C1(C(=O)[O-])CCC1.[Pt+2] [carboplatin, reference compound] | 64 colonies/well | 16% | 40 colonies/well | 10% | 37% | approximately 37% | approximately 37% |  |  |  |  |  |  |  |  |  |  |
| N.N.[Cl][Pt][Cl] [cisplatin, reference compound] | 54 colonies/well | 13% | 29 colonies/well | 7% | 37% | approximately 37% | approximately 37% | 54 colonies | 13% | 29 colonies | 7% | half of that at 6 MV | approximately 50% |  |  |  |  |
| O.O.[Na+].[Na+].[O]=[W](=[O])([O-])[O-] [sodium tungstate dihydrate] |  |  |  |  |  |  |  | 70 colonies | 68% | 21 colonies | 20% |  | ~70% | approximately 70% |  |  |  |
| sodium phosphotungstate hydrate | 68 colonies/well | 66% | 35 colonies/well | 34% | approximately 50% |  | 48% | 68 colonies | 66% | 35 colonies | 34% | double cell kill | approximately 50% |  | greater than 95% | approximately 65% | approximately 50% |

From patent US11771717B2, “Applications of pair-production for improved radiotherapy” (Henry Ford Health System, priority 2017, dated 2023)
